Reference: patent EP2710378B1, “METHOD TO PROGNOSE VIRAL INFECTION BY MEASURING T CELL RESPONSE OR AUTO-ANTIBODIES TO APOPTOTIC EPITOPES” (Università degli Studi di Roma "La Sapienza", priority 2011, dated 2012)

System: CD8+pentamer+ TEM cells
Assay: Cross-presentation of apoptotic cells
Format: cell-based, patients with acute HCV infection
Conditions: DCs pulsed with apoptotic T cells previously treated with the inhibitor; five independent patients
Experimental: […]. Then, cells were induced to apoptosis by incubation with 500 ng/ml anti-Fas (anti-CD95 mAb [clone CH11], Upstate Biotechnology) for at least 6 h. Apoptotic cells were determined by staining with Annexin- V (ApoAlert Apoptosis Kit, Clontech Laboratories Inc), PI (Sigma-Aldrich) and flow-cytometry analysis. PBMCs were double-stained with pentamers and mAb to CD8 and cultured with iDCs that had been pulsed or not with apoptotic cloned T cells. After 6-8 h, cells were tested for their capacity to produce IL-17 and IFN-γ by intracellular cytokine staining (ICS) as described above. Cells were washed, acquired with a FACSCanto flow cytometer and analyzed with FACSDiva analysis software (Becton Dickinson) or FlowJo software (Treestar).
It is for interest the finding that fresh apoptotic epitope-specific CD8^+pentamer^+ TEM cells promptly produced IFN-γ or IL-17 ex vivo within a few hours of contact with DCs that had been pulsed with apoptotic T cells (i.e., through the cross-presentation mechanism) (Figure 25A,B). […] This phenomenon was confirmed in five independent patients (Figure 25B). The frequencies of apoptotic epitope-specific CD8^+ T cells (but not those of viral epitope-specific CD8^+ T cells [data not shown]) correlated with the number of circulating apoptotic T cells (Figure 25C). […]

COC(=O)CC[C@H](NC(=O)[C@H](CC(=O)OC)NC(=O)OCc1ccccc1)C(=O)N[C@H](C(=O)N[C@@H](CC(=O)OC)C(=O)CF)C(C)C [C3I, Z-DEVD-FMK]
IFN-γ or IL-17 production: marked decrease
